Source: PMC3402541, “Guanidylation and Tail Effects in Cationic Antimicrobial Lipopeptoids” (PLoS ONE, 2012)
Converted amounts (≈) assume the structure as drawn. “And” between values parts separate entries of the source, which are not always exact repeats. Identical values can stand only once.

What was measured:
S.aureus ATCC 29213 = assay type: cell-based, Staphylococcus aureus; settings: ATCC 29213, Mueller-Hinton broth, 24 hr, 37°C, without replication; for MIC S.aureus in the presence of 4% bovine serum albumin: 4% BSA added, macrobroth dilution; for MIC S.aureus: CLSI macrobroth dilution, 5 x 10^5 CFU/mL
Procedure, shortened: (§1)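 Lipopeptoids, from stocks at 512 µg/mL in water (DMSO where needed), were serially doubled in cation-adjusted Mueller-Hinton broth and inoculated to approximately 5 x 10^5 CFU/mL. MIC read after 24 hr at 37°C.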

MRSE CAN-ICU 61589 = assay type: cell-based, methicillin-resistant S. epidermidis; settings: CAN-ICU 61589, Mueller-Hinton broth, 24 hr, 37°C, without replication; for MIC MRSE in the presence of 4% bovine serum albumin: 4% BSA added, macrobroth dilution; for MIC MRSE: CLSI macrobroth dilution, 5 x 10^5 CFU/mL
Procedure, shortened: as §1

E. faecalis ATCC 29212 = assay type: cell-based, Enterococcus faecalis; settings: ATCC 29212, Mueller-Hinton broth, 24 hr, 37°C, without replication; for MIC E. faecalis in the presence of 4% bovine serum albumin: 4% BSA added, macrobroth dilution; for MIC E. faecalis: CLSI macrobroth dilution, 5 x 10^5 CFU/mL
Procedure, shortened: as §1

K.pneumoniae ATCC 13883 = assay type: cell-based, Klebsiella pneumoniae; settings: ATCC 13883, Mueller-Hinton broth, 24 hr, 37°C, without replication; for MIC K.pneumoniae in the presence of 4% bovine serum albumin: 4% BSA added, macrobroth dilution; for MIC K.pneumoniae: CLSI macrobroth dilution, 5 x 10^5 CFU/mL
Procedure, shortened: as §1

[1] = system: A. baumannii CAN-ICU 63169; assay type: cell-based, Acinetobacter baumannii; settings: CAN-ICU 63169, Mueller-Hinton broth, 24 hr, 37°C, without replication; for MIC A. baumannii in the presence of 4% bovine serum albumin: 4% BSA added, macrobroth dilution; for MIC A. baumannii: CLSI macrobroth dilution, 5 x 10^5 CFU/mL
Procedure, shortened: as §1

MSSE 81388 CANWARD 2008 = assay type: cell-based, methicillin-susceptible S. epidermidis; settings: 81388 CANWARD 2008, Mueller-Hinton broth, 24 hr, 37°C, without replication; for MIC MSSE in the presence of 4% bovine serum albumin: 4% BSA added, macrobroth dilution; for MIC MSSE: CLSI macrobroth dilution, 5 x 10^5 CFU/mL
Procedure, shortened: as §1

E. faecium ATCC 27270 = assay type: cell-based; settings: ATCC 27270, Mueller-Hinton broth, 24 hr, 37°C, without replication; for MIC E. faecium in the presence of 4% bovine serum albumin: 4% BSA added, macrobroth dilution; for MIC E. faecium: CLSI macrobroth dilution, 5 x 10^5 CFU/mL
Procedure, shortened: as §1

S.pneumoniae ATCC 49619 = assay type: cell-based, Streptococcus pneumoniae; settings: ATCC 49619, Mueller-Hinton broth, 24 hr, 37°C, without replication; for MIC S.pneumoniae in the presence of 4% bovine serum albumin: 4% BSA added, macrobroth dilution; for MIC S.pneumoniae: CLSI macrobroth dilution, 5 x 10^5 CFU/mL
Procedure, shortened: as §1

ovine erythrocytes = assay: Haemolytic assay; assay type: cell-based, sheep; settings: ovine erythrocytes in Tris buffered saline, 30 minutes, absorbance of supernatant at 540 nm
Procedure, shortened: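 Washed sheep erythrocytes in Tris-buffered saline exposed to compound (50 μg/mL–1 mg/mL; final 4.08 x 10^8 cells/mL) for 30 min. After centrifugation, supernatant absorbance at 540 nm gave % haemolysis; 0.5% ammonium chloride as positive control.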

[2] = system: P.aeruginosa CAN-ICU 62308; assay type: cell-based, Pseudomonas aeruginosa; settings: CAN-ICU 62308, Mueller-Hinton broth, 24 hr, 37°C, without replication; for MIC P.aeruginosa in the presence of 4% bovine serum albumin: 4% BSA added, macrobroth dilution; for MIC P.aeruginosa: CLSI macrobroth dilution, 5 x 10^5 CFU/mL
Procedure, shortened: as §1

P.aeruginosa ATCC 27853 = assay type: cell-based, Pseudomonas aeruginosa; settings: ATCC 27853, Mueller-Hinton broth, 24 hr, 37°C, without replication; for MIC P.aeruginosa in the presence of 4% bovine serum albumin: 4% BSA added, macrobroth dilution; for MIC P.aeruginosa: CLSI macrobroth dilution, 5 x 10^5 CFU/mL
Procedure, shortened: as §1

[3] = system: S. maltophilia CAN-ICU 62584; assay type: cell-based, Stenotrophomonas maltophilia; settings: CAN-ICU 62584, Mueller-Hinton broth, 24 hr, 37°C, without replication; for MIC S. maltophilia in the presence of 4% bovine serum albumin: 4% BSA added, macrobroth dilution; for MIC S. maltophilia: CLSI macrobroth dilution, 5 x 10^5 CFU/mL
Procedure, shortened: as §1

NCCCCN(CC(N)=O)C(=O)CNC(=O)CN(CCCCN)C(=O)CCC(F)(F)C(F)(F)C(F)(F)C(F)(F)C(F)(F)C(F)(F)C(F)(F)C(F)(F)F [F11-NlysGNlys]
MIC S.aureus in the presence of 4% bovine serum albumin (S.aureus ATCC 29213): 256 µg/mL
MIC S.aureus (S.aureus ATCC 29213): 32 µg/mL (≈ 39.8 µM)
MIC MRSE in the presence of 4% bovine serum albumin (MRSE CAN-ICU 61589): 256 µg/mL
MIC MRSE (MRSE CAN-ICU 61589): 32 µg/mL (≈ 39.8 µM)
MIC E. faecalis in the presence of 4% bovine serum albumin (E. faecalis ATCC 29212): 256 µg/mL
MIC E. faecalis (E. faecalis ATCC 29212): 64 µg/mL (≈ 79.5 µM)
MIC K.pneumoniae in the presence of 4% bovine serum albumin (K.pneumoniae ATCC 13883): >512 µg/mL
MIC K.pneumoniae (K.pneumoniae ATCC 13883): >512 µg/mL
MIC A. baumannii in the presence of 4% bovine serum albumin [1]: >512 µg/mL
MIC A. baumannii [1]: >512 µg/mL
MIC MSSE in the presence of 4% bovine serum albumin (MSSE 81388 CANWARD 2008): 128 µg/mL
MIC MSSE (MSSE 81388 CANWARD 2008): 32 µg/mL (≈ 39.8 µM)
MIC E. faecium in the presence of 4% bovine serum albumin (E. faecium ATCC 27270): 256 µg/mL
MIC E. faecium (E. faecium ATCC 27270): 64 µg/mL (≈ 79.5 µM)
MIC S.pneumoniae in the presence of 4% bovine serum albumin (S.pneumoniae ATCC 49619): 512 µg/mL
MIC S.pneumoniae (S.pneumoniae ATCC 49619): 256 µg/mL (≈ 318 µM)
Percent haemolysis at 100µg/mL of compound (ovine erythrocytes): 4.84%
MIC P.aeruginosa in the presence of 4% bovine serum albumin [2]: >512 µg/mL
MIC P.aeruginosa [2]: 512 µg/mL (≈ 636 µM)
MIC P.aeruginosa in the presence of 4% bovine serum albumin (P.aeruginosa ATCC 27853): >512 µg/mL
MIC P.aeruginosa (P.aeruginosa ATCC 27853): 512 µg/mL (≈ 636 µM)
MIC S. maltophilia in the presence of 4% bovine serum albumin [3]: >512 µg/mL
MIC S. maltophilia [3]: >512 µg/mL

CCCCCCCCCCCCCCCC[N+](C)(C)C.[Cl-] [CTAC, Cetyltrimethylammonium chloride, reference compound]
MIC S.aureus in the presence of 4% bovine serum albumin (S.aureus ATCC 29213): 32 µg/mL
MIC S.aureus (S.aureus ATCC 29213): 1 µg/mL
MIC MRSE in the presence of 4% bovine serum albumin (MRSE CAN-ICU 61589): 128 µg/mL
MIC MRSE (MRSE CAN-ICU 61589): 2 µg/mL
MIC E. faecalis in the presence of 4% bovine serum albumin (E. faecalis ATCC 29212): 32 µg/mL
MIC E. faecalis (E. faecalis ATCC 29212): 1 µg/mL
MIC K.pneumoniae in the presence of 4% bovine serum albumin (K.pneumoniae ATCC 13883): 512 µg/mL
MIC K.pneumoniae (K.pneumoniae ATCC 13883): 16 µg/mL
MIC A. baumannii in the presence of 4% bovine serum albumin [1]: 512 µg/mL
MIC A. baumannii [1]: 32 µg/mL
MIC MSSE in the presence of 4% bovine serum albumin (MSSE 81388 CANWARD 2008): 16 µg/mL
MIC MSSE (MSSE 81388 CANWARD 2008): 0.5 µg/mL
MIC E. faecium in the presence of 4% bovine serum albumin (E. faecium ATCC 27270): 64 µg/mL
MIC E. faecium (E. faecium ATCC 27270): 0.5 µg/mL
MIC S.pneumoniae in the presence of 4% bovine serum albumin (S.pneumoniae ATCC 49619): 8 µg/mL
MIC S.pneumoniae (S.pneumoniae ATCC 49619): 2 µg/mL
Percent haemolysis at 100µg/mL of compound (ovine erythrocytes): 77% and 77.05%
MIC P.aeruginosa in the presence of 4% bovine serum albumin [2]: 512 µg/mL
MIC P.aeruginosa [2]: 64 µg/mL
MIC P.aeruginosa in the presence of 4% bovine serum albumin (P.aeruginosa ATCC 27853): >512 µg/mL
MIC P.aeruginosa (P.aeruginosa ATCC 27853): 128 µg/mL
MIC S. maltophilia in the presence of 4% bovine serum albumin [3]: 512 µg/mL
MIC S. maltophilia [3]: 32 µg/mL

NCCCCN(CC(N)=O)C(=O)CN(CCCCN)C(=O)CN(CCCCN)C(=O)CCC(F)(F)C(F)(F)C(F)(F)C(F)(F)C(F)(F)C(F)(F)C(F)(F)C(F)(F)F [F11-NlysNlysNlys]
MIC S.aureus in the presence of 4% bovine serum albumin (S.aureus ATCC 29213): 128 µg/mL
MIC S.aureus (S.aureus ATCC 29213): 32 µg/mL (≈ 36.5 µM)
MIC MRSE in the presence of 4% bovine serum albumin (MRSE CAN-ICU 61589): 256 µg/mL
MIC MRSE (MRSE CAN-ICU 61589): 32 µg/mL (≈ 36.5 µM)
MIC E. faecalis in the presence of 4% bovine serum albumin (E. faecalis ATCC 29212): 512 µg/mL
MIC E. faecalis (E. faecalis ATCC 29212): 64 µg/mL (≈ 73.1 µM)
MIC K.pneumoniae in the presence of 4% bovine serum albumin (K.pneumoniae ATCC 13883): >512 µg/mL
MIC K.pneumoniae (K.pneumoniae ATCC 13883): >512 µg/mL
MIC A. baumannii in the presence of 4% bovine serum albumin [1]: >512 µg/mL
MIC A. baumannii [1]: >512 µg/mL
MIC MSSE in the presence of 4% bovine serum albumin (MSSE 81388 CANWARD 2008): 128 µg/mL
MIC MSSE (MSSE 81388 CANWARD 2008): 32 µg/mL (≈ 36.5 µM)
MIC E. faecium in the presence of 4% bovine serum albumin (E. faecium ATCC 27270): 256 µg/mL
MIC E. faecium (E. faecium ATCC 27270): 64 µg/mL (≈ 73.1 µM)
MIC S.pneumoniae in the presence of 4% bovine serum albumin (S.pneumoniae ATCC 49619): 512 µg/mL
MIC S.pneumoniae (S.pneumoniae ATCC 49619): 128 µg/mL (≈ 146 µM)
Percent haemolysis at 100µg/mL of compound (ovine erythrocytes): 8.13%
MIC P.aeruginosa in the presence of 4% bovine serum albumin [2]: 512 µg/mL
MIC P.aeruginosa [2]: 256 µg/mL (≈ 292 µM)
MIC P.aeruginosa in the presence of 4% bovine serum albumin (P.aeruginosa ATCC 27853): 512 µg/mL
MIC P.aeruginosa (P.aeruginosa ATCC 27853): 128 µg/mL (≈ 146 µM)
MIC S. maltophilia in the presence of 4% bovine serum albumin [3]: >512 µg/mL
MIC S. maltophilia [3]: >512 µg/mL
